In Sander's compilation of Henry's law constants (doi:10.14233/ajchem.2013.13584):
Several values for one entry are separate records, joined by “and”; a condition that tells them apart may be missing. Equal entries are not always repeated.

Experiment: Henry solubility constant Hcp at 298.15 K (mol/(m3 Pa))
Details: reference: Zhang et al. (2013)

Compound	Henry solubility constant Hcp
Cc1ccccc1C [1,2-dimethylbenzene]	0.0027 and 0.0022
c1ccccc1 [benzene]	0.0027 and 0.0035
CCc1ccccc1 [ethylbenzene]	0.0019 and 0.0014
Cc1ccccc1 [methylbenzene]	0.0028
O=[N+]([O-])c1ccccc1 [nitrobenzene]	0.14
ClC=C(Cl)Cl [trichloroethene]	0.0016 and 0.0013
